Test system: THP-1 Lucia ISG cells
Assay: ISG-LUC activation assay (ISRE-luciferase assay)
Type: cell-based
Settings: Homo sapiens, THP1-Lucia ISG, activity score based upon potency and efficacy data, 24 hours
Text: We have established a robust platform for identifying non-nucleotide small molecule STING agonists. This has been established using a primary assay involving a human THP-1 cell line carrying an IRF-inducible reporter with 5 copies of the IFN signaling response element. Counter screens, involving alternative reporter constructs, rodent cell-based assays, as well as cGAS and STING knock-out cell lines, are used to eliminate luciferase artifacts and ensure human-rodent cross species reactivity, as well as pathway selectivity. Biochemical assays, involving cGAS enzymatic activity and STING protein binding assays, are used to identify the specific target of identified hits.
Tissue culture. Wild-type (cat. no. thpl-isg) and STING KO (cat. no. thpd-kostg) THP-1-Lucia ISG cells were purchased from Invivogen and maintained in growth media consisting of RPMI 1640, 2 mM L-glutamine, 25 mM HEPES, 10% heat-inactivated fetal bovine serum (FBS), 1,000 units/ml penicillin, 1,000 μg/ml streptomycin, 0.25 μg/ml Amphotericin B, and 100 μg/ml zeocin unless otherwise stated.
ISRE-luciferase assay. THP-1 Lucia ISG cells were resuspended in low-serum growth media (2% FBS) at a density of 5×10^5 cells/ml and treated with test article or vehicle (DMSO). 50 μL of cells were seeded into each well of a 384-well white greiner plates and incubated for 24 hours. To evaluate expression of the luciferase reporter, 30 μl of Quanti-luc (Invivogen) detection reagent was added to each well and luminescence was read using an Envision plate reader (Perkin Elmer) set with an integration time of 0.1 seconds.

Row | SMILES | EC50
1 | C#Cc1cc(NC(=O)c2ccc(-c3ccncc3)nn2)c(C(=O)O)cc1Cl [Compound 78] | < 900 nM
2 | C#Cc1cc2nc(-c3ccc(-n4ccnc4)nn3)oc(=O)c2cc1Cl [Compound 80] | < 900 nM
3 | O=C(Nc1cc(Cl)c(Cl)nc1C(=O)O)c1ccc(-n2ccnc2)nn1 [Compound 82] | < 900 nM
4 | C#Cc1cc(NC(=O)c2ccc(-c3cn[nH]c3)nn2)c(-c2c(O)c(=O)c2=O)cc1F [Compound 83] | < 900 nM
5 | C#Cc1cc(NC(=O)c2ccc(-c3cn[nH]c3)nn2)c(-c2nn[nH]n2)cc1F [Compound 84] | > 1000 nM
6 | C#Cc1cc(NC(=O)c2ccc(-n3ccnc3)nn2)c(C(=O)OC(C)OC(=O)OCC)cc1F (stereo not shown) [Compound 86] | < 900 nM
7 | CC#Cc1cc(NC(=O)c2ccc(-n3ccnc3)nn2)c(C(=O)O)cc1F [Compound 87] | < 900 nM
8 | C=Cc1cc(NC(=O)c2ccc(-n3ccnc3)nn2)c(C(=O)O)cc1F [Compound 88] | < 900 nM
9 | C/C=C/c1cc(NC(=O)c2ccc(-n3ccnc3)nn2)c(C(=O)O)cc1F [Compound 89] | < 900 nM
10 | Cc1nc(C(=O)O)c(NC(=O)c2ccc(-n3ccnc3)nn2)cc1Cl [Compound 91] | > 1000 nM
11 | C#Cc1cc2nc(-c3ccc(-n4ccnc4)nn3)oc(=O)c2nc1Cl [Compound 93] | < 3000 nM
12 | C#Cc1cc(NC(=O)c2ccc(-n3ccnc3)nn2)c(C(=O)OC(OC(=O)C(C)C)C(C)C)cc1F (stereo not shown) [Compound 94] | < 900 nM
13 | C#Cc1cc(NC(=O)c2ccc(-n3ccnc3)nn2)c(C(=O)OC(C)C)cc1F [Compound 96] | > 1000 nM
14 | C#Cc1cc(NC(=O)c2ccc(-n3ccnc3)nn2)c(C(=O)OCCN2CCOCC2)nc1Cl [Compound 98] | < 900 nM
15 | N#Cc1cc(C(=O)O)c(NC(=O)c2ccc(-n3ccnc3)nn2)cc1Cl [Compound 99] | < 3000 nM
16 | C/C=C/c1cc(NC(=O)c2ccc(-n3ccnc3)nn2)c(C(=O)O)nc1Cl [Compound 101] | < 900 nM
17 | C#Cc1cc(NC(=O)c2ccc(-n3ccnc3)nn2)c(C(=O)OC(C)OC(=O)OCC)nc1Cl (stereo not shown) [Compound 102] | < 900 nM
18 | C#Cc1cc(NC(=O)c2ccc(-n3ccnc3)nn2)c(C(=O)OCCN2CCOCC2)cc1F [Compound 103] | < 900 nM
19 | C#Cc1cc(NC(=O)c2ccc(-n3ccnc3)nn2)c(C(=O)NCCO)cc1F [Compound 106] | > 20000 nM
20 | C#Cc1cc(NC(=O)c2ncc(-c3cn[nH]c3)cn2)c(C(=O)O)cc1F [Compound 108] | > 20000 nM

Now from value to compound:

Row | EC50 | SMILES
21 | < 900 nM | C#Cc1cc(NC(=O)c2ccc(-n3ccnc3)nn2)c(C(=O)O)cc1F [Compound 79]
22 | < 900 nM | C#Cc1cc(NC(=O)c2ccc(-n3ccnc3)nn2)c(C(=O)O)cc1Cl [Compound 81]
23 | < 900 nM | C#Cc1cc(NC(=O)c2ccc(-n3ccnc3)nn2)c(C(=O)OCC)cc1F [Compound 85]
24 | < 3000 nM | C#Cc1cc(NC(=O)c2ccc(-n3ccnc3)nn2)c(C(=O)O)nc1C [Compound 90]
25 | < 900 nM | C#Cc1cc(NC(=O)c2ccc(-n3ccnc3)nn2)c(C(=O)O)nc1F [Compound 92]
26 | < 900 nM | CC#Cc1cc(NC(=O)c2ccc(-n3ccnc3)nn2)c(C(=O)OCC)nc1Cl [Compound 95]
27 | < 900 nM | C#Cc1cc(NC(=O)c2ccc(-n3ccnc3)nn2)c(C(=O)OC(C)C)nc1Cl [Compound 97]
28 | < 3000 nM | C#Cc1cc(NC(=O)c2ccc(-n3ccnc3)nn2)c(C(=O)O)cc1C#N [Compound 100]
29 | < 900 nM | CC#Cc1cc(NC(=O)c2ccc(-n3ccnc3)nn2)c(C(=O)O)nc1Cl [Compound 104]
30 | > 1000 nM | C#Cc1cc(NC(=O)c2ccc(-n3ccnc3)nn2)c(C(=O)NCCO)nc1Cl [Compound 105]
31 | < 900 nM | C#Cc1cc(NC(=O)c2ccc(-n3ccnc3)nn2)c(C(=O)OC)nc1C#N [Compound 107]
